Measured values as given in patent US20180179596A1, “HISTONE MODIFICATION AGENTS FOR CANCER TREATMENT” (MOR RESEARCH APPLICATIONS LTD., priority 2015, published 2018).

What was measured:
[1] = system: histone H3 acetylation in NALM6 cells overexpressing KANSL1; assay: Histone H3 acetylation quantification in NALM6 cells overexpressing KANSL1 after MG-149 treatment; format: cell-based, human; settings: 20 μM MG-149 added 24 h after KANSL1 plasmid transfection; histones extracted 48 h after transfection; FIG. 15
Experimental: NALM6 cell line was grown in RPMI (ATCC) supplemented with 10% fetal bovine serum (FBS) (Life Technologies), 0.1% L-Glutamine and 0.1% Penicillin Streptomycin (PS) (Life Technologies). Cells were cultured in a humidified atmosphere in an incubator at 37° C. with 5% CO2. Plasmid overexpression transfection was done by electroporation, using the Amaxa® Nucleofector technology (Lonza). Purified plasmid was sent to Maxi-Prep (Hy-Labs) and a concentration of 2 μg was taken for the transfection. As a negative control, a Green Fluorescent Protein (GFP) plasmid provided by the Amaxa kit was used.
Histones were extracted 48 h after transfection. Total histone protein concentration was adjusted to 400 ng/μl. Histone acetylation quantification was analyzed according to the manufacture's protocol (Epigentek).

[2] = system: MYST type of histone acetyltransferase (Tip60 and MOF); settings: cited from earlier work

Q: With `CCCCCCCc1ccc(CCc2cccc(O)c2C(=O)O)cc1` [MG-149] as the molecule, how does the “acetylation of histone H3 (total H3 acetylation level)” value [1] read?
A: inhibited to near control levels

Q: What about the “selectivity toward MYST type histone acetyltransferase” value [2] of the same molecule?
A: selectivity toward the MYST type of histone acetyltransferase (Tip60 and MOF)
